Blank lines part the entries; values can stand above or below the compound they belong to.
How the values were obtained:
Rattus norvegicus [1] = assay: Antihypertensive activity in spontaneously hypertensive rat assessed as reduction in blood pressure at 50 mg/kg, po measured after 5 hr relative to control; type: functional; design: scale not given: the % may be the effect or the level left
Rattus norvegicus [2] = assay: Antihypertensive activity in spontaneously hypertensive rat assessed as reduction in blood pressure at 50 mg/kg, po measured after 1 hr relative to control; type: functional; design: scale not given: the % may be the effect or the level left
Rattus norvegicus [3] = assay: Antihypertensive activity in spontaneously hypertensive rat assessed as reduction in blood pressure at 50 mg/kg, po measured after 3 hrs relative to control; type: functional; design: scale not given: the % may be the effect or the level left
[4] = Toxicity in ip dosed mouse; type: organism-based; details: in vivo
Acetylcholinesterase [5] = target: T1, Acetylcholinesterase (Homo sapiens, UniProt P22303); assay: Inhibition of human erythrocyte acetylcholinesterase using acetylthiocholine as substrate preincubated for 20 mins followed by substrate addition and measured every 30 secs for 1 hr by Ellman's method
[6] = target: T2, Neuronal acetylcholine receptor; alpha4/beta2 (Homo sapiens, UniProt P17787+P43681); assay: Agonist activity at human brain alpha4beta2 nAChR expressed in Xenopus laevis oocytes assessed as peak response relative to acetylcholine response; type: cell-based; details: Oocyte
Acetylcholinesterase [7] = target: T1, Acetylcholinesterase; assay: Inhibition of human erythrocyte acetylcholinesterase using acetylthiocholine as substrate by Ellman's colorimetric method
[8] = Selectivity ratio of Ki for horse serum BuChE to Ki for human erythrocyte acetylcholinesterase
Cholinesterase [9] = target: Cholinesterase (Equus caballus, UniProt P81908); assay: Inhibition of horse serum BuChE by Ellman's colorimetric method
[10] = Neuroprotective activity against NMDA-induced cell death in rat neurons assessed as cell survival pretreated for 45 mins followed by NMDA stimulation and measured after 30 mins by MTT assay (reference value: […]%); type: functional, Neuron; details: time 75 min; 1.25 h
[11] = Toxicity in male rat; details: in vivo
[12] = Neuroprotective activity against glutamate-induced calcium mobilization in rat forebrain derived neurons assessed as calcium elevation at 100 nM (reference value: 811 nM); type: functional, Neuron
[13] = Neuroprotective activity against Bay-K8644-induced calcium mobilization in rat forebrain derived neurons assessed as calcium elevation at 100 nM (reference value: 521 nM); type: functional, Neuron
[14] = Neuroprotective activity against glutamate-induced cell death in rat forebrain derived neurons assessed as neuron death at 100 nM incubated for 45 mins (reference value: 55%); type: functional; details: 0.75 h
[15] = Toxicity in female rat; details: in vivo
[16] = target: T3, Dopamine beta-hydroxylase (Bos taurus) (UniProt P15101); assay: Inhibition of bovine adrenal medulla DBH at 5 uM relative to control
T3 sequence (whole entry): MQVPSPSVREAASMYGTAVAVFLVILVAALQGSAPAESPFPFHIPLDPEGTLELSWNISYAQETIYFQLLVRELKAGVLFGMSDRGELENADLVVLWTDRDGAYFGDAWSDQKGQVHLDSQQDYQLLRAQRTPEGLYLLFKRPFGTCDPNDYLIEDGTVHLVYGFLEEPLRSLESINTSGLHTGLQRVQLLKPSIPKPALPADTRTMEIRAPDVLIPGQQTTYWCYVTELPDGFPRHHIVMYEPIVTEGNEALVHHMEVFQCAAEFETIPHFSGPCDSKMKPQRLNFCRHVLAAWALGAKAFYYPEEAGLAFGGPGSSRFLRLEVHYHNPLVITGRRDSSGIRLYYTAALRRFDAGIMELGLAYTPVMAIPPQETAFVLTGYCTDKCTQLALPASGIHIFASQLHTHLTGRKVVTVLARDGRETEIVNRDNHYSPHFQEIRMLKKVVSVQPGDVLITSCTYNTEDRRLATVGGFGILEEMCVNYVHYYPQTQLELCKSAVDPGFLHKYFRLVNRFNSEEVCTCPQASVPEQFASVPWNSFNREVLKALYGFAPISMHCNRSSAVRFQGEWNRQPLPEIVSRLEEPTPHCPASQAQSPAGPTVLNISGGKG

[17] = target: T3, Dopamine beta-hydroxylase (Bos taurus); assay: Inhibition of bovine adrenal medulla DBH at 0.5 uM relative to control
[18] = target: Neuronal acetylcholine receptor; alpha4/beta2 (Rattus norvegicus, UniProt P09483+P12390); assay: Inhbition of [3H] nicotine binding to rat brain alpha4beta2 nAChR by Cheng-Prusoff equation analysis
Rattus norvegicus [19] = species on record: Rattus norvegicus; assay: Antagonist activity at nAChR in Sprague-Dawley rat striatum assessed as inhibition of nicotine-evoked [3H] dopamine release at 100 nM relative to control; type: tissue-based
Cholinesterase [20] = target: Cholinesterase (Homo sapiens, UniProt P06276); assay: Inhibition of BuChE (unknown origin)
Acetylcholinesterase [21] = target: T1, Acetylcholinesterase
Cavia porcellus [22] = species on record: Cavia porcellus; assay: Inhibition of voltage-dependent calcium channel mediated calcium influx in guinea-pig ileum assessed as Cacl2 induced maximal smooth muscle contraction at 490 uM incubated for 15 mins relative to control; type: tissue-based
Cavia porcellus [23] = species on record: Cavia porcellus; assay: Inhibition of voltage-dependent calcium channel mediated calcium influx in guinea-pig ileum assessed as Cacl2 induced maximal smooth muscle contraction at 120 uM incubated for 15 mins relative to control; type: tissue-based
[24] = target: T2, Neuronal acetylcholine receptor; alpha4/beta2; assay: Potency index, ratio of nicotine Ki to test compound Ki for Displacement of [3H]cytisine from human alpha4beta2 nAChR by Cheng-Prusoff equation analysis; type: protein-complex assay
[25] = target: T2, Neuronal acetylcholine receptor; alpha4/beta2
[26] = target: T2, Neuronal acetylcholine receptor; alpha4/beta2; remark: listed apart in the source
[27] = target: T2, Neuronal acetylcholine receptor; alpha4/beta2; assay: Potency index, ratio of nicotine IC50 to test compound IC50 for Displacement of [3H]cytisine from human alpha4beta2 nAChR by radioligand competition analysis; type: protein-complex assay

T1 sequence (P22303 whole entry): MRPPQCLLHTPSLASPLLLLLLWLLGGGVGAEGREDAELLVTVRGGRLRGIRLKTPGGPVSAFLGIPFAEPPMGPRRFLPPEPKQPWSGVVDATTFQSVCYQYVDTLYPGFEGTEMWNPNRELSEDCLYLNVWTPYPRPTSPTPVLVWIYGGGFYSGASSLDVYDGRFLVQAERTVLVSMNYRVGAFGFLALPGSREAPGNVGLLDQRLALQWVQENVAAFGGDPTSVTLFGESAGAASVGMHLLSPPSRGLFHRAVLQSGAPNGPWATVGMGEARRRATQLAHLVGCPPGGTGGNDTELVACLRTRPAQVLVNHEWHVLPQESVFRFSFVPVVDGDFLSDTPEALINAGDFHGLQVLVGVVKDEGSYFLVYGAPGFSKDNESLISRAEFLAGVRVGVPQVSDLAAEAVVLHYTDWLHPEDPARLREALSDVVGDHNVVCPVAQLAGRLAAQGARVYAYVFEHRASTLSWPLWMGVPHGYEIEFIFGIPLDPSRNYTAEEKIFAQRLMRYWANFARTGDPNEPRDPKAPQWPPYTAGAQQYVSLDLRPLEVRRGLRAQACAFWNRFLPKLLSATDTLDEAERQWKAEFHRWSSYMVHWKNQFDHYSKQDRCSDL
T2 sequence (P17787 whole entry): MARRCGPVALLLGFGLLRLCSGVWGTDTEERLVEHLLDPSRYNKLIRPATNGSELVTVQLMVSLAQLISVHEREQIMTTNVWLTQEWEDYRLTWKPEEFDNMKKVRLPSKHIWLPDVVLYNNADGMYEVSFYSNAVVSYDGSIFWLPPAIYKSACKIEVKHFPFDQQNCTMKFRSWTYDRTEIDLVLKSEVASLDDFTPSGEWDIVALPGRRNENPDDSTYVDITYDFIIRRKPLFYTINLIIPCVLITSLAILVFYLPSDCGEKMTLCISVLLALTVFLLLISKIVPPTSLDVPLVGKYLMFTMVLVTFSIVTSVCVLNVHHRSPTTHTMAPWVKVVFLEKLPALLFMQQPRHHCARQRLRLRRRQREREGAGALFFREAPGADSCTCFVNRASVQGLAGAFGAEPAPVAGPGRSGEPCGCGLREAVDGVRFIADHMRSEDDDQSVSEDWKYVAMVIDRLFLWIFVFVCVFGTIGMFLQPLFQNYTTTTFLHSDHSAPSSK
T2 sequence (P43681 whole entry): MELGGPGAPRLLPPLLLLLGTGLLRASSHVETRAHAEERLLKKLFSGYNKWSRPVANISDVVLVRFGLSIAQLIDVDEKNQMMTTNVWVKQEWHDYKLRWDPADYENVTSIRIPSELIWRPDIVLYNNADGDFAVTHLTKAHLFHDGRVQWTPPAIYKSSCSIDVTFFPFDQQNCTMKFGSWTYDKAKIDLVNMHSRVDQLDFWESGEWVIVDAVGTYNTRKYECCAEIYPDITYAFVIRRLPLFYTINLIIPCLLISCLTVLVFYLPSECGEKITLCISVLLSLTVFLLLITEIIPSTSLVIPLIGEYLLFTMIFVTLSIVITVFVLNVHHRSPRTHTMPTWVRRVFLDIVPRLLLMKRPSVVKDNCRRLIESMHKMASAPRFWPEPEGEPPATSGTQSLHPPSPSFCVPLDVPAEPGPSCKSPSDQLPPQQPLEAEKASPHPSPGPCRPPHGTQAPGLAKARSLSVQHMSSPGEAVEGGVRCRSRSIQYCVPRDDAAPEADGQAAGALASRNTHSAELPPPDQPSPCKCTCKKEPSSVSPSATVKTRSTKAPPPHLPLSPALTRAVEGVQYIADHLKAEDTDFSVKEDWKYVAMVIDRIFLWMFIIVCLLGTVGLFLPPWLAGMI
Neuronal acetylcholine receptor; alpha4/beta2 (Rattus norvegicus, UniProt P09483+P12390), sequence (P09483 whole entry): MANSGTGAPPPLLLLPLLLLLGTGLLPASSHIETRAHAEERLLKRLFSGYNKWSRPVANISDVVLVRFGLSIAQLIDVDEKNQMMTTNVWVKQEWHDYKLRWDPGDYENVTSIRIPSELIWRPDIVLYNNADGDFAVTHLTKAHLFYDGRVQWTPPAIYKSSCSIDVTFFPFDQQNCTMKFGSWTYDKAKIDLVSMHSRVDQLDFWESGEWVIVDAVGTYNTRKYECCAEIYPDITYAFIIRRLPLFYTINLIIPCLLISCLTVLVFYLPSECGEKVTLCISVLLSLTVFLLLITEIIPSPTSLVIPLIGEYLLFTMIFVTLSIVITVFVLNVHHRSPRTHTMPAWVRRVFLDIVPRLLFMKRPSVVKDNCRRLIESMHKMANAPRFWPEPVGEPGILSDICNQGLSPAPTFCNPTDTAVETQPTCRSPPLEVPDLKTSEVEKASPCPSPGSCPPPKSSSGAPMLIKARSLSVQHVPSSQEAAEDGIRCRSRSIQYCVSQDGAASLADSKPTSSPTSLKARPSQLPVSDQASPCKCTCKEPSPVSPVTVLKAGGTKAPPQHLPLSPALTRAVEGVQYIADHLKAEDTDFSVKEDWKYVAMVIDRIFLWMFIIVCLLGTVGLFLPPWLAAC
Neuronal acetylcholine receptor; alpha4/beta2 (Rattus norvegicus, UniProt P09483+P12390), sequence (P12390 whole entry): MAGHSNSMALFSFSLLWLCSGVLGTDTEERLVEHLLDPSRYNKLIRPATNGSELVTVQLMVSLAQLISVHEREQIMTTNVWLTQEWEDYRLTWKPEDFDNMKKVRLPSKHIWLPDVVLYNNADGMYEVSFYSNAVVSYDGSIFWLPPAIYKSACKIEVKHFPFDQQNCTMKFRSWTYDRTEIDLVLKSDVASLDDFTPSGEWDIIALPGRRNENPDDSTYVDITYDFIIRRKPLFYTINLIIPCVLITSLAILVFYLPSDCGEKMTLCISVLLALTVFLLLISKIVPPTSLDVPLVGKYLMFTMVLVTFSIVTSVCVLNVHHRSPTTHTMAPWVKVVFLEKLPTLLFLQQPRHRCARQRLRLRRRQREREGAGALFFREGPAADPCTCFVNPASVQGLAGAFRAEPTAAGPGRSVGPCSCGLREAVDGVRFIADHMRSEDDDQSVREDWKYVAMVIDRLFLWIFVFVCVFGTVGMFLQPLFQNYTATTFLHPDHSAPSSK
Cholinesterase (Equus caballus, UniProt P81908), sequence (P81908 whole entry): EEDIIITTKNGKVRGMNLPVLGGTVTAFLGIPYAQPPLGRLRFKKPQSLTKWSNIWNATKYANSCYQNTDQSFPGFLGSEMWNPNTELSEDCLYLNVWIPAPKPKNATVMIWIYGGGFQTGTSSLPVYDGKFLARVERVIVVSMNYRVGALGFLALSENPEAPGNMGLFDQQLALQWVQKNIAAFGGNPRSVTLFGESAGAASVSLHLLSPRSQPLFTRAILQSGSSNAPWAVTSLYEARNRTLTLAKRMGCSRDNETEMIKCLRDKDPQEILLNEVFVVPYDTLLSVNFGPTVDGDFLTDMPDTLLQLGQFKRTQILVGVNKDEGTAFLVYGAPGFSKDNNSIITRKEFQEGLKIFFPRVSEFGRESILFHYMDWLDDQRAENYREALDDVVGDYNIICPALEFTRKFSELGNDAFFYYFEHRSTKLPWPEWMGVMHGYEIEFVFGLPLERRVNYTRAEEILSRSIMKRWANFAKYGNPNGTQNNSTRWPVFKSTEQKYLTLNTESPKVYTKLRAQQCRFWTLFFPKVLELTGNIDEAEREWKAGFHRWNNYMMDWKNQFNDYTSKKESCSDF
Cholinesterase (Homo sapiens, UniProt P06276), sequence (P06276 whole entry): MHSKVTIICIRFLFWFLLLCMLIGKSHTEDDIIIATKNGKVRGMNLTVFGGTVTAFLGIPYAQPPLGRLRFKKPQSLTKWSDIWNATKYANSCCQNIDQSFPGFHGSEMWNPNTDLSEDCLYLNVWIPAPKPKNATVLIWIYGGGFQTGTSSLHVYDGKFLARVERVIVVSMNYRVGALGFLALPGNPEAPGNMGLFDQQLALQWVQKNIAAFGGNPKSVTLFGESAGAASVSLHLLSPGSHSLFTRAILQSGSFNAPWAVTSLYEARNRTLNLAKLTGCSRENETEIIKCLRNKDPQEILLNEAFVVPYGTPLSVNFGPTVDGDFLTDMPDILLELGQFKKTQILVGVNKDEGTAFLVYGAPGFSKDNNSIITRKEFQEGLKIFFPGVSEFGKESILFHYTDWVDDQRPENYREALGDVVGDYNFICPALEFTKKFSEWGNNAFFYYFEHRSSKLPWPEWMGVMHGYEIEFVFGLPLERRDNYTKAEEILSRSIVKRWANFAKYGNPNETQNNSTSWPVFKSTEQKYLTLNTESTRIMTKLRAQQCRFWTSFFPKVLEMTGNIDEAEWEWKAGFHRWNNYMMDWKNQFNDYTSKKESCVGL

Compound: O=C(O)c1ccc(Cc2ccc(O)cc2)cn1
Activity (Rattus norvegicus [1]): 23% | Activity (Rattus norvegicus [2]): 21% | Activity (Rattus norvegicus [3]): 16% | LD50 [4]: 350 mg/kg

Compound: C/C=C1\C2C=C(C)CC1(NCC(=O)OC)c1ccc(=O)[nH]c1C2 (configuration not stated)
IC50 (Acetylcholinesterase [5]): 6.71 µM

Compound: C1=CC[C@H](c2cccnc2)NC1
Imax [6]: 25%

Compound: CN1CCCC[C@H]1c1ccc(-c2cccnc2)nc1
Ki (Acetylcholinesterase [7]): 51 µM | Ratio Ki [8]: 8.6 | Ki (Cholinesterase [9]): 440 µM

Compound: C/C=C1\[C@H]2C=C(C)C[C@]1(N)c1ccc(=O)[nH]c1C2 [HUPERZINE A]
Activity [10]: 85% | LD50 [11]: > 4 mg/kg | Activity [12]: 668 nM | Activity [13]: 505 nM | Activity [14]: 30% | LD50 [15]: 2 mg/kg

inhibition [16]: 83% | inhibition [17]: 55%
Compound: O=C(O)c1ccccn1

Compound: CN1CCC[C@H]1c1cncc([C@@H]2CCCN2C)c1
Ki [18]: 1.18 µM | inhibition (Rattus norvegicus [19]): < 64%

Compound: CC1=C[C@@H]2Cc3[nH]c(=O)ccc3[C@]3(C1)NCCC[C@H]23
IC50 (Cholinesterase [20]): 169 µM | IC50 (Acetylcholinesterase [21]): 2.57 µM

Compound: COC(=O)c1cncc2c1C[C@H](O)[C@@H]2C
inhibition (Cavia porcellus [22]): 45% | inhibition (Cavia porcellus [23]): 90%

Compound: C[C@@H]1CC2C3Cn4c(cccc4=O)C(CN2C)C31 (some centres not stated)
Ratio Ki [24]: 5 | Ki [25]: 0.00032 µM | IC50 [26]: 0.00096 µM | Ratio IC50 [27]: 5

— ChEMBL document CHEMBL4673260, “Pyridine alkaloids with activity in the central nervous system” (Bioorg Med Chem, 2020)
